The values below come from article PMC11420707, “Functional and Immunologic Mapping of Domains of the Reticulocyte-Binding Protein Plasmodium vivax PvRBP2a” (The Journal of Infectious Diseases, 2024).

Assay [1] addresses soluble recombinant CD98 protein (Homo sapiens, UniProt P08195). The assay can be described thus: biochemical.
Procedure: PvRBP2a epitopes for reticulocyte and CD98 binding. […] Reticulocytes were blocked with the polyclonal rabbit anti-CD98 antibody (KE020) or a rabbit isotype control antibody for 15 minutes before staining with biotinylated peptide candidates and detection with streptavidin-APC. Reticulocytes were distinguished from normocytes via thiazole orange staining. […] (B) Candidate binding peptides were tested for direct binding to CD98 via biolayer interferometry. 2µM biotinylated peptides were loaded onto streptavidin-coated sensors, which was immersed in a solution of 200nM CD98 to assess binding. (C) Peptides with detectable binding in the initial binding screen were further analyzed for their binding kinetics to CD98 via biolayer interferometry, with 3 independent replicates. The mean and standard error for dissociation constant (KD), on-rate (ka) and off-rate (kd) are given.
Binding sensorgrams were collected on the Octet Red 96e system. Fresh streptavidin sensors were used without any regeneration step. Streptavidin sensor, without biotinylated peptide loading, but with maximum concentration of non-biotinylated CD98 was used as the reference. Kinetic binding assays were performed using Octet Data Acquisition version 10.0.1.3 at 37°C with orbital shaking speed of 1,000 rpm. The assay was carried out in PBS buffer supplemented with 0.05% Tween-20 and 1mg/mL BSA (PBST/BSA). For initial screening, the biosensor was sequentially dipped into wells containing 200µL of solution each: i) baseline, PBST/BSA (30 s), ii) loading, 2µM biotinylated peptide fragment or vehicle control (VC) (5 min), iii) washing, PBST/BSA (30 s), iv) blocking, 25µM biocytin (5 min) to minimize non-specific binding of CD98, v) washing, PBST/BSA (30 s), vi) association, 200 nM non-biotinylated CD98 (30 min) and vii) dissociation, PBST/BSA (15 min).
Assay [2] has as its system fresh human reticulocytes. The assay can be described thus: Reticulocyte-binding assay (flow cytometry). The class given is cell-based. The following applies: 15 µg/mL biotinylated peptide, 37°C 1 hour; for binding to reticulocytes (% of reticulocytes bound): CD71-enriched cord blood reticulocytes, streptavidin-APC and thiazole orange, 2 independent replicates. Here is the method:
Fresh human cord blood was enriched for reticulocytes with CD71 microbeads and MACS columns (supplementary methods). Reticulocytes were washed twice with cold phosphate-buffered saline, added to 15 µg/mL of peptide solution, and incubated at 37°C for 1 hour. Reticulocytes were then stained with streptavidin-APC and thiazole orange at 37°C for 1 hour, washed, and acquired on a flow cytometer.
Reticulocytes were enriched from the human cord blood through the selection of CD71+ reticulocytes, using human CD71 microbeads (Miltenyi Biotec, clone AC108.1). Around 1-2ml of blood at 50% haematocrit in PBS was passed through a LS column. After two washing steps using PBS, the reticulocytes were stained with reticulocyte stain (Sigma Aldrich New Methylene Blue) and viewed under the microscope to ensure >80% purity of reticulocytes after selection.
For orientation: In flow cytometry, cells or beads pass a laser one at a time.

Assay [3] deals with sera from donors infected with P vivax. The assay can be described thus: ELISA of peptide antigenicity against donor sera. The class given is binding, human. The note with it: for antigenicity against the seropositive sera mix: individual peptides, pooled sera of 20 P vivax-infected donors 1:267; for antigenic in seropositive cases (cases/donors): individual seropositive sera 1:1000, 20 donors. An excerpt: We next sought to identify the immunodominant epitopes within the PvRBP2a23-767 CD98-binding domain. Groups of 5 adjacent peptides each were pooled and examined for antigenicity against a mix of sera from 20 donors infected with P vivax (positive by blood smear microscopy) via enzyme-linked immunosorbent assay (Figure 2A). Binding against at least 15 negative donors (non–P vivax exposed) was also examined to control for nonspecific binding. […] To confirm their antigenicity, these peptides were then examined against individual seropositive or seronegative sera. PepLib 3 and PepLib 53 were antigenic in a minority of seropositive cases (7/20 and 2/20, respectively; Supplementary Figure 3B), whereas PepLib 52 was antigenic in most seropositive cases (18/20; Figure 2B). Thus, we identified PepLib 52 (PvRBP2a431-448) as the most reactive linear B-cell epitope in the CD98-binding region of PvRBP2a.
Figure 2. Identification of antigenic and functional linear epitopes of PvRBP2a. A, Peptides were pooled into groups of 5 and coated on streptavidin plates. Pooled sera were added from donors infected with Plasmodium vivax. Following washing, binding of peptides to donor sera was quantified with an anti-human horseradish peroxidase secondary antibody. The baseline was determined to be the mean + 3 SD of the reactivity of the seronegative sample pool to all peptide pools, and peptide pools showing a greater optical density (OD) value were deemed immunoreactive. B, The antigenicity of the antigenic peptide hit, PepLib_52, was confirmed by plasma from 20 donors who were seropositive and 22 who were seronegative. C, The effect of PvRBP2a-derived linear epitope peptides on P vivax invasion was examined on 5 P vivax clinical isolates. Selected CD98-binding PvRBP2a peptide candidates that were in cluster A (PepLib_25, PepLib_49) or cluster B/immunodominant (PepLib_41, PepLib_52), as well as negative control peptides (PepLib_50, PepLib_56) and positive control monoclonal antibodies (anti-Duffy 2C3, anti-CD98 HBJ127), were tested for their ability to inhibit P vivax invasion into reticulocytes. One well without addition of peptide or antibody served as a control for measurement of baseline reinvasion level. *P < .05 by 2-tailed t test with Shapiro-Wilk normality test.
Streptavidin-coated plates (Pierce) were blocked with 1% casein/1% BSA in 0.1% PBST overnight at 4°C, then coated with blocked with PvRBP2a-derived biotinylated peptides at 1:1000 dilution (approximately 15ug/ml) in 0.2% casein/0.2% BSA at room temperature for 1 hour. Pooled or individual donor sera was then applied at 1:267 (pooled) or 1:1000 (individual) dilution in 0.2% casein/0.2% BSA at room temperature for 1 hour, followed by secondary goat […] IgG-HRP at 1:1000 dilution in 0.1% casein/0.1% BSA at room temperature for 1 hour, then TMB substrate (Surmodics, BioFX® TMB One Component HRP Microwell Substrate) incubation for 5 minutes.
(In general: In an ELISA, binding on a coated surface is turned into a signal by an enzyme label.)

For assay [4], the system named is P vivax invasion into human reticulocytes. The assay can be described thus: Inhibition of P vivax reticulocyte invasion. The format is cell-based, Plasmodium vivax. The following applies: peptide 100 µg/mL, 5 P vivax clinical isolates, parasitemia at 24 hours versus well without peptide. Here is the method:
• Antibodies: anti-CD98 mouse IgG1 mAb HBJ127 [8] (Absolute Antibody) and anti-human DARC mouse IG1 mAb 2C3 [9] (Absolute Antibody); working concentration, 25 µg/mL • Cluster A or B PvRBP2a peptides: PepLib 25, 41, 49, 52; working concentration, 100 µg/mL • Control PvRBP2a peptides: PepLib 50, 56; working concentration, 100 µg/mL
Fresh/frozen blood isolates of P vivax were matured in vitro and late stages concentrated with MACS LD columns. Purified infected red blood cells were mixed with cord blood–derived CD71+ reticulocytes (sorted with CD71 beads + MACS LS columns). Infected red blood cell–reticulocyte mixtures were each mixed with an antibody/peptide as stated previously. Wells without peptide/antibody served as controls. All groups were cultivated in vitro as described before. Smears were made at the start (H0) to ensure that ring-stage parasitemia was 0% and 24 hours later (H24) to determine parasitemia (10 000 red blood cells counted). Statistically significant differences were identified by 2-tailed paired t test with Shapiro-Wilk normality test, performed in Prism 10.1.2 (GraphPad).

The target in assay [5] is PepLib_21 (PvRBP2a_(183-200)) (Plasmodium vivax). The assay can be described thus: BLI; biotinylated peptides (2 µM) loaded onto streptavidin-coated sensors, immersed in a solution of 200nM CD98.
For assay [6], the target named is PepLib_36 (PvRBP2a_(303-320)) (Plasmodium vivax). Described as above.
Assay [7] concerns the target PepLib_40 (PvRBP2a_(335-352)) (Plasmodium vivax). Described as above.
In assay [8] the target is PepLib_49 (PvRBP2a_(407-424)) (Plasmodium vivax). The assay is described as above.

Residues, ends and D or L forms follow the SMILES beside them. *: point of attachment. Biotin = O=C1N[C@H]2[C@H](CS[C@H]2CCCCC(=O)*)N1

soluble recombinant CD98 protein, sequence (P08195 218-630): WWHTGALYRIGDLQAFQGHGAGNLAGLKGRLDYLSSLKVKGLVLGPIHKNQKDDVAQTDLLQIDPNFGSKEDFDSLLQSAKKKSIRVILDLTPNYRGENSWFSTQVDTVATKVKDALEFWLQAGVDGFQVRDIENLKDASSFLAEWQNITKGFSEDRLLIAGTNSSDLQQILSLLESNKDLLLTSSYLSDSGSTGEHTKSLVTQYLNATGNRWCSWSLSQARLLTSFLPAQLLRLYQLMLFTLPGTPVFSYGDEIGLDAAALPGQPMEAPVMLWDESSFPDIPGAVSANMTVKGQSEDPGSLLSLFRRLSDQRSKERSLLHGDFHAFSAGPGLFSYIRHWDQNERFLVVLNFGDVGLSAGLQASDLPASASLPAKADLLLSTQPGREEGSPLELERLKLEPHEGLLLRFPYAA

Take `CC[C@H](C)[C@H](NC(=O)[C@H](CCC(=O)O)NC(=O)[C@H](C)NC(=O)[C@H](Cc1ccccc1)NC(=O)[C@H](Cc1ccc(O)cc1)NC(=O)[C@H](CC(N)=O)NC(=O)[C@H](CCSC)NC(=O)[C@H](CCC(N)=O)NC(=O)[C@@H](NC(=O)CNC(=O)[C@H](CO)NC(=O)CNC(=O)[C@H](CO)NC(=O)CCCC[C@@H]1SC[C@@H]2NC(=O)N[C@@H]21)C(C)C)C(=O)N[C@@H](CCCCN)C(=O)N[C@@H](Cc1ccc(O)cc1)C(=O)N[C@@H](Cc1ccc(O)cc1)C(=O)N[C@H](C(=O)N[C@H](C(=O)N[C@@H](Cc1ccc(O)cc1)C(=O)N[C@@H](Cc1c[nH]cn1)C(=O)N[C@@H](Cc1ccc(O)cc1)C(=O)N[C@@H](CCC(=O)O)C(=O)O)[C@@H](C)O)[C@@H](C)CC` [PepLib_21] (Biotin-SGSGVQMNYFAEIKYYITYHYE-OH): the Kd – broadly, the equilibrium constant for the complex coming apart – in assay [1] came out at 54.9 nM.

On to `CC[C@H](C)[C@H](NC(=O)[C@H](CCC(=O)O)NC(=O)[C@H](Cc1ccc(O)cc1)NC(=O)[C@@H](NC(=O)[C@H](CC(=O)O)NC(=O)[C@@H](NC(=O)[C@H](CCC(=O)O)NC(=O)[C@H](CS)NC(=O)CNC(=O)[C@H](CO)NC(=O)CNC(=O)[C@H](CO)NC(=O)CCCC[C@@H]1SC[C@@H]2NC(=O)N[C@@H]21)[C@@H](C)O)[C@@H](C)O)C(=O)N[C@@H](CCSC)C(=O)N[C@@H](CC(C)C)C(=O)N[C@@H](CCC(=O)O)C(=O)N[C@H](C(=O)N[C@@H](Cc1ccc(O)cc1)C(=O)N[C@H](C(=O)N[C@@H](CCC(=O)O)C(=O)N[C@@H](CCCNC(=N)N)C(=O)N[C@H](C(=O)N[C@@H](CCCCN)C(=O)O)C(C)C)C(C)C)[C@@H](C)CC` [PepLib_36] (Biotin-SGSGCETDTYEIMLEIYVERVK-OH), for which, in assay [1], the Kd is 47.5 nM.

With `CC[C@H](C)[C@H](NC(=O)[C@H](CCC(=O)O)NC(=O)[C@H](CCC(N)=O)NC(=O)[C@H](CCCCN)NC(=O)[C@@H](NC(=O)[C@H](CCCCN)NC(=O)[C@H](CC(C)C)NC(=O)[C@H](CCSC)NC(=O)[C@H](CC(C)C)NC(=O)[C@@H](NC(=O)[C@@H](NC(=O)CNC(=O)[C@H](CC(C)C)NC(=O)[C@H](CCC(N)=O)NC(=O)[C@H](CC(C)C)NC(=O)[C@H](CO)NC(=O)[C@H](C)NC(=O)[C@H](CCCCN)NC(=O)CNC(=O)[C@H](CO)NC(=O)CNC(=O)[C@H](CO)NC(=O)CCCC[C@@H]1SC[C@@H]2NC(=O)N[C@@H]21)C(C)C)[C@@H](C)O)C(C)C)C(=O)O` [PepLib_40] (Biotin-SGSGKASLQLGVTLMLKVKQEI-OH), the Kd in assay [1] came out at 70 nM.

As for `CC(C)C[C@H](NC(=O)[C@H](CO)NC(=O)[C@H](Cc1ccccc1)NC(=O)[C@H](CCCCN)NC(=O)[C@H](Cc1ccc(O)cc1)NC(=O)[C@@H](NC(=O)[C@H](C)NC(=O)[C@H](Cc1ccc(O)cc1)NC(=O)[C@H](Cc1ccccc1)NC(=O)[C@H](CC(N)=O)NC(=O)[C@H](C)NC(=O)[C@H](CO)NC(=O)[C@H](CC(=O)O)NC(=O)[C@H](Cc1ccccc1)NC(=O)[C@H](Cc1ccc(O)cc1)NC(=O)[C@H](CC(C)C)NC(=O)[C@H](CCCCN)NC(=O)[C@H](CCCCN)NC(=O)CNC(=O)[C@H](CO)NC(=O)CNC(=O)[C@H](CO)NC(=O)CCCC[C@@H]1SC[C@@H]2NC(=O)N[C@@H]21)[C@@H](C)O)C(=O)O` [PepLib_49] (Biotin-SGSGKKLYFDSANFYATYKFSL-OH), the Kd in assay [1] stood at 90.3 nM.

Consider “ADYARYSNLQIIDIKSKY [PepLib_60, biotinylated 18-mer of the PvRBP2a23-767 peptide library]”, for which the “binding to reticulocytes (% of reticulocytes bound)” value in assay [2] is at least 10%.

Turning to “KLLANLYNKLITYVSEKI [PepLib_53, biotinylated 18-mer of the PvRBP2a23-767 peptide library]”, in assay [3], the “antigenicity against the seropositive sera mix” value (“antigenicity” below) is “showed antigenicity” and the “antigenic in seropositive cases (cases/donors)” value (“antigenic … (cases/donors)” below) is recorded as 2/20. For the same compound, the “binding to reticulocytes (% of reticulocytes bound)” value in assay [2] is on record as at least 10%.

For “LYFISKSESMISEFEDTF [PepLib_56, biotinylated 18-mer of the PvRBP2a23-767 peptide library; negative control peptide]”, the “binding to reticulocytes (in words)” value in assay [2] is “do not show binding to reticulocytes”. The “inhibition of parasite invasion into reticulocytes, mean” value (from here on “inhibition”) in assay [4] came to 50%.

As for “NFYATYKFSLKRADTTTA [PepLib_50, biotinylated 18-mer of the PvRBP2a23-767 peptide library; negative control peptide]”, the “binding to reticulocytes (in words)” value in assay [2] is “do not show binding to reticulocytes”. The “inhibition” value in assay [4] amounted to 10.4%.

For the compound “PLMSSIQNQINSCVPKKA [PepLib_25, biotinylated 18-mer of the PvRBP2a23-767 peptide library]”, the “binding to reticulocytes (% of reticulocytes bound)” value in assay [2] is given as at least 10%. For the same compound, the “inhibition” value in assay [4] is given as 49.6%.

Regarding “TAALKEKGKLLANLYNKL [PepLib_52, biotinylated 18-mer of the PvRBP2a23-767 peptide library]”, in assay [3], the “antigenicity” value was “showed antigenicity” and the “antigenic … (cases/donors)” value was 18/20. The “binding to reticulocytes (in words)” value in assay [2] is recorded as “did not bind directly to reticulocytes”. Besides, the “inhibition” value in assay [4] is given as 60.2%.

As to “TLMLKVKQEIDNNVTISA [PepLib_41, biotinylated 18-mer of the PvRBP2a23-767 peptide library]”, the “binding to reticulocytes (% of reticulocytes bound)” value in assay [2] is reported as at least 10%. In addition, the “inhibition” value in assay [4] is reported as −1.1%.

Regarding “WPLQDSLNESDKFEYTNG [PepLib_3, biotinylated 18-mer of the PvRBP2a23-767 peptide library]”, in assay [3], the “antigenicity” value is listed as “showed antigenicity” and the “antigenic … (cases/donors)” value is on record as 7/20.

As for “YVNYLSTLKASLQLGVTL [PepLib_39, biotinylated 18-mer of the PvRBP2a23-767 peptide library]”, the “binding to reticulocytes (% of reticulocytes bound)” value in assay [2] is listed as at least 10%.

As for “soluble recombinant CD98 protein (from UniProt P08195 1-529) (receptor)”, the Kd is 54.9 nM in assay [5], 47.5 nM in assay [6], 70 nM in assay [7] and 90.3 nM in assay [8].
